What was measured:
Format in all cases: cell-based
MOLT-4 cells = assay: CTG (CellTiter-Glo) cell viability assay, MOLT-4; conditions: Homo sapiens, MOLT-4, 72 h, MOLT-4, 3 day; read-out: CTG Cell Viability Assay - MOLT-4 3 day: Average external-IC50
How it was run: (§1)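 Viability read by CellTiter-Glo luminescence after 3 days' compound exposure at 37 °C under 5% CO2, with 10,000 cells per well. Dosing was nine 1:3 dilutions starting at 10 µM, DMSO normalized to 0.2%; IC50 values come from three-parameter logistic curve fitting.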

BCL-XL = biological target: T1, BCL-XL (Homo sapiens, UniProt Q07817); assay: BCL-XL degradation assay in MOLT-4 cells (ELISA, 6 h); conditions: for DC50: read-out: Bcl-xL ELISA in MOLT-4 degradation 6 h: External Abs-DC50
T1 construct: BCL-XL degradation results in MOLT-4 cells for compounds of the invention; endogenous in cells; host or cells: MOLT-4
T1 sequence (Q07817 whole entry): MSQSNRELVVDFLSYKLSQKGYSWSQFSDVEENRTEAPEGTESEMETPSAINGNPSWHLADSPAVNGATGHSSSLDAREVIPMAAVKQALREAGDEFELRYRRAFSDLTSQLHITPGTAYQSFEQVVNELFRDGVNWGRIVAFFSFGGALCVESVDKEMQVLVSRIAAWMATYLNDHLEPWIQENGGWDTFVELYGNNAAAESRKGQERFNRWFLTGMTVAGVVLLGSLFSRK

Caki-2 cells = assay: CTG (CellTiter-Glo) cell viability assay, Caki-2; conditions: Homo sapiens, CAKI-2, 72 h, Caki-2, 3-day; read-out: CTG Chempartner/PHA- Caki-2 3-day: Average external-IC50
How it was run: as §1

Row | SMILES | IC50 (MOLT-4 cells) [µM] | Dmax (BCL-XL) [%] | DC50 (BCL-XL) [µM] | IC50 (Caki-2 cells) [µM]
1 | Cc1ncsc1-c1ccc([C@H](C)NC(=O)[C@@H]2C[C@@H](O)CN2C(=O)[C@@H](NC(=O)CCCCCC(=O)N2CCN(CCCNc3ccc(S(=O)(=O)NC(=O)c4ccc(N5CCC([C@@H](O)c6ccccc6-c6ccc(Cl)cc6)CC5)cc4Oc4cnc5[nH]ccc5c4)cc3S(=O)(=O)C(F)(F)F)CC2)C(C)(C)C)cc1 (single isomer, unassigned) [I-23] | 0.1 to 1 | < 50 | 0.5 to 1 | > 30
2 | Cc1ncsc1-c1ccc([C@H](C)NC(=O)[C@@H]2C[C@@H](O)CN2C(=O)[C@@H](NC(=O)C2CCN(c3ccc(NC(=O)c4ccc(-c5ccc(Cl)cc5)c([C@H](O)C5CCN(c6ccc(C(=O)NS(=O)(=O)c7ccc(N[C@H](CCN(C)CCO)CSc8ccccc8)c(S(=O)(=O)C(F)(F)F)c7)cc6)CC5)c4)cc3)CC2)C(C)(C)C)cc1 (single isomer, unassigned) [I-27] | > 3 | < 50 | 0.5 to 1 | > 30
3 | Cc1ncsc1-c1ccc([C@H](C)NC(=O)[C@@H]2C[C@@H](O)CN2C(=O)[C@@H](NC(=O)CCCCCCC(=O)N2CCN(C[C@]3(C)CCC(c4ccc(Cl)cc4)=C(CN4CCN(c5ccc(C(=O)NS(=O)(=O)c6ccc(NCCCN7CCOCC7)c(S(=O)(=O)C(F)(F)F)c6)c(Oc6cnc7[nH]ccc7c6)c5)CC4)C3)CC2)C(C)(C)C)cc1 [I-65] | < 0.1 | 50 to 75 | 0.01 to 0.1 | 10 to 30
4 | Cc1ncsc1-c1ccc([C@H](C)NC(=O)[C@@H]2C[C@@H](O)CN2C(=O)[C@@H](NC(=O)CCCCCC(=O)N2CCN(CCCNc3ccc(S(=O)(=O)NC(=O)c4ccc(N5CCN(CC6=C(c7ccc(Cl)cc7)CCC(C)(C)C6)CC5)cc4Oc4cnc5[nH]ccc5c4)cc3S(=O)(=O)C(F)(F)F)CC2)C(C)(C)C)cc1 [I-52] | 0.1 to 1 | 50 to 75 | 0.1 to 0.5 | > 30
5 | Cc1ncsc1-c1ccc([C@H](C)NC(=O)[C@@H]2C[C@@H](O)CN2C(=O)[C@@H](NC(=O)CCCCCC(=O)N2CCN(CC[C@H](CSc3ccccc3)Nc3ccc(S(=O)(=O)NC(=O)c4ccc(N5CCN(Cc6ccccc6-c6ccc(Cl)cc6)CC5)cc4)cc3[N+](=O)[O-])CC2)C(C)(C)C)cc1 [I-35] | > 3 | > 75 | 0.01 to 0.1 | > 30
6 | Cc1ncsc1-c1ccc([C@H](C)NC(=O)[C@@H]2C[C@@H](O)CN2C(=O)[C@@H](NC(=O)CCCCCC(=O)N2CCN(c3ccc(-c4ccc(Cl)cc4)c([C@H](O)C4CCN(c5ccc(C(=O)NS(=O)(=O)c6ccc(N[C@H](CCN(C)CCO)CSc7ccccc7)c(S(=O)(=O)C(F)(F)F)c6)cc5)CC4)c3)CC2)C(C)(C)C)cc1 (single isomer, unassigned) [I-113] | 0.1 to 1 | > 75 | < 0.01 | > 30
7 | Cc1ncsc1-c1ccc([C@H](C)NC(=O)[C@@H]2C[C@@H](O)CN2C(=O)[C@@H](NC(=O)CCCCCC(=O)N2CCN(CC[C@H](CSc3ccccc3)Nc3ccc(S(=O)(=O)NC(=O)c4ccc(N5CCOCC5)cc4)cc3S(=O)(=O)C(F)(F)F)CC2)C(C)(C)C)cc1 [I-36] | > 3 | < 50 | 0.5 to 1 | > 30
8 | Cc1ncsc1-c1ccc([C@H](C)NC(=O)[C@@H]2C[C@@H](O)CN2C(=O)[C@@H](NC(=O)CCCCCC(=O)N2CCN(CCCNc3ccc(S(=O)(=O)NC(=O)c4ccc(N5CCN(CC6=C(c7ccc(Cl)cc7)CC(C)(C)CC6)CC5Oc5cnc6[nH]ccc6c5)cc4)cc3S(=O)(=O)C(F)(F)F)CC2)C(C)(C)C)cc1 (stereo partly shown) [I-133] | 0.1 to 1 | < 50 | 0.5 to 1 | > 30
9 | Cc1ncsc1-c1ccc([C@H](C)NC(=O)[C@@H]2C[C@@H](O)CN2C(=O)[C@@H](NC(=O)C2CCN(c3ccc(NC(=O)c4ccc(-c5ccc(Cl)cc5)c(CN5CCN(c6ccc(C(=O)NS(=O)(=O)c7ccc(N[C@H](CCN(C)C)CSc8ccccc8)c([N+](=O)[O-])c7)cc6)CC5)c4)cc3)CC2)C(C)(C)C)cc1 [I-21] | > 3 | < 50 | 0.5 to 1 | > 30
10 | Cc1ncsc1-c1ccc([C@H](C)NC(=O)[C@@H]2C[C@@H](O)CN2C(=O)[C@@H](NC(=O)CCCCCCCC(=O)N2CCN(CCCNc3ccc(S(=O)(=O)NC(=O)c4ccc(N5CCN(CC6=C(c7ccc(Cl)cc7)CC(C)(C)CC6)CC5)cc4Oc4cnc5[nH]ccc5c4)cc3S(=O)(=O)C(F)(F)F)CC2)C(C)(C)C)cc1 [I-86] | 0.1 to 1 | 50 to 75 | 0.01 to 0.1 | > 30
11 | Cc1ncsc1-c1ccc([C@H](C)NC(=O)[C@@H]2C[C@@H](O)CN2C(=O)[C@@H](NC(=O)CCCCCC(=O)N2CCN(CCCNc3ccc(S(=O)(=O)NC(=O)c4ccc(N5CCN(CC6=C(c7ccc(Cl)cc7)CC(C)(C)CC6)CC5)cc4Oc4cnc5[nH]ccc5c4)cc3S(=O)(=O)C(F)(F)F)CC2)C(C)(C)C)cc1 [I-22, (2S,4R)-1-((S)-2-(7-(4-(3-((4-(N-(2-((1H-pyrrolo[2,3-b]pyridin-5-yl)oxy)-4-(4-((4′-chloro-5,5-dimethyl-3,4,5,6-tetrahydro-[1,1′-biphenyl]-2-yl)methyl)piperazin-1-yl)benzoyl)sulfamoyl)-2-((trifluoromethyl)sulfonyl)phenyl)amino)propyl)piperazin-1-yl)-7-oxoheptanamido)-3,3-dimethylbutanoyl)-4-hydroxy-N—((S)-1-(4-(4-methylthiazol-5-yl)phenyl)ethyl)pyrrolidine-2-carboxamide] | 0.1 to 1 | > 75 | 0.01 to 0.1 | 10 to 30
12 | Cc1ncsc1-c1ccc([C@H](C)NC(=O)[C@@H]2C[C@@H](O)CN2C(=O)[C@@H](NC(=O)CCCCCC(=O)N2CCN(CC[C@H](CSc3ccccc3)Nc3ccc(S(=O)(=O)NC(=O)c4ccc(N5CC6CCC5C6)cc4)cc3S(=O)(=O)C(F)(F)F)CC2)C(C)(C)C)cc1 (stereo partly shown) [I-40] | > 3 | 50 to 75 | 0.5 to 1 | > 30
13 | Cc1ncsc1-c1ccc([C@H](C)NC(=O)[C@@H]2C[C@@H](O)CN2C(=O)[C@@H](NC(=O)CCCCCCCC(=O)Nc2ccc(-c3ccc(Cl)cc3)c(CN3CCN(c4ccc(C(=O)NS(=O)(=O)c5ccc(N[C@H](CCN(C)C)CSc6ccccc6)c([N+](=O)[O-])c5)cc4)CC3)c2)C(C)(C)C)cc1 [I-10] | > 3 | 50 to 75 | 0.1 to 0.5 | > 30
14 | Cc1ncsc1-c1ccc([C@H](C)NC(=O)[C@@H]2C[C@@H](O)CN2C(=O)[C@@H](NC(=O)CCCCCN(C)CCCNc2ccc(S(=O)(=O)NC(=O)c3ccc(N4CCN(CC5=C(c6ccc(Cl)cc6)CC(C)(C)CC5)CC4)cc3Oc3cnc4[nH]ccc4c3)cc2S(=O)(=O)C(F)(F)F)C(C)(C)C)cc1 [I-69] | > 3 | < 50 | 0.5 to 1 | > 30
15 | Cc1ncsc1-c1ccc([C@H](C)NC(=O)[C@@H]2C[C@@H](O)CN2C(=O)[C@@H](NC(=O)CCCCCC(=O)N2CCN(CC[C@H](CSc3ccccc3)Nc3ccc(S(=O)(=O)NC(=O)c4ccc(N5CCCN(C)CC5)cc4)cc3S(=O)(=O)C(F)(F)F)CC2)C(C)(C)C)cc1 [I-41] | > 3 | < 50 | 0.5 to 1 | > 30
16 | Cc1ncsc1-c1ccc([C@H](C)NC(=O)[C@@H]2C[C@@H](O)CN2C(=O)[C@@H](NC(=O)CCCCCC(=O)N2CCN(CC[C@H](CSc3ccccc3)Nc3ccc(S(=O)(=O)NC(=O)c4ccc(N5CC6CC6C5)cc4)cc3S(=O)(=O)C(F)(F)F)CC2)C(C)(C)C)cc1 (stereo partly shown) [I-37] | > 3 | < 50 | 0.5 to 1 | > 30
